This is an account of results in patent US20260285816A1, “Piperazinyl-Modified Quinazolinyl-Aryl Urea Derivative, And Preparation Method And Use Thereof” (Guangxi Normal University, priority 2025, published 2026).

What all share (assay type): cell-based, human
Experiment [1] has as its system T24 cells. Nature of the experiment: CCK-8 anti-proliferative assay, T24. As to conditions: Table 16, comparative compounds 8-1 to 8-23, co-incubated 48 h, read-out: Anti-proliferative activity (IC50 ± standard deviation) T24. The text has this: (§1) The obtained quinazolinyl-aryl urea derivatives were screened for compounds with optimal activity using the following method. All cell lines employed in this experiment were of human origin, including: bladder cancer cells: J82, UM-UC-3, T24, 5637, pancreatic cancer cells: BxPC-3, PANC-1, osteosarcoma cells: 143B, MG-63, cervical cancer cells: HeLa, breast cancer cells: MCF-7, NSCLC cells: A549, hepatoblastoma cells: Hep G2, and ovarian cancer cells: SK-OV-3, as well as normal cell lines: immortalized ureteral epithelial cells (SV-HUC-1), embryonic lung fibroblasts (WI-38).
(§2) Experimental Procedure for Anti-Proliferative Activity Evaluation: The CCK-8 assay was employed. Cells in logarithmic growth phase were harvested, adjusted to appropriate density, and uniformly seeded into 96-well plates using a multichannel pipette (180 μL cell suspension containing complete medium per well, 5,000 cells/well). Blank control wells (containing basal medium, CCK-8 solution, and DMSO only) were set. Cells were incubated at 37° C. under 5% CO2. After 70% confluency was reached, test compounds (target compounds/positive controls) were added at final concentrations of 1, 2, 4, 6, 8, 12, 16, 24, and 30 μM (3 repeated wells per concentration). Compounds were pre-dissolved in DMSO, sterilized, and diluted with medium before adding 20 μL/well. After co-incubation for designated durations, 10 μL CCK-8 solution was added per well followed by 1-4 h incubation (different cells have different incubation times). The reaction was terminated, and OD (optical density) values at 450 nm were measured using a microplate reader. Inhibition rates were calculated as: (ODcontrol−ODtreatment)/ODcontrol×100%. Median inhibitory concentrations (IC50 values) were derived using Origin v8.0 software.
For orientation: Tetrazolium assays rely on reduction of a dye to a coloured formazan, in cell work by metabolically active cells.

Experiment [2] relates to 5637 cells. Nature of the experiment: CCK-8 anti-proliferative assay, 5637. As to conditions: Table 16, comparative compounds 8-1 to 8-23, co-incubated 48 h, read-out: Anti-proliferative activity (IC50 ± standard deviation) 5637. The method, then: (§3) The obtained quinazolinyl-aryl urea derivatives were screened for compounds with optimal activity using the following method.
as §2, with “The reaction was terminated, and OD (optical density) values at 450 nm were measured using a microplate reader.” left out

For experiment [3], the system named is MCF-7 cells. Nature of the experiment: CCK-8 anti-proliferative assay, MCF-7. As to conditions: Table 16, comparative compounds 8-1 to 8-23, co-incubated 48 h, read-out: Anti-proliferative activity (IC50 ± standard deviation) MCF-7. As for the experimental part: as §3
as §2, with “The reaction was terminated, and OD (optical density) values at 450 nm were measured using a microplate reader.” left out

Experiment [4] has as its system A549 cells. In words: CCK-8 anti-proliferative assay, A549. As to conditions: Table 16, comparative compounds 8-1 to 8-23, co-incubated 48 h, read-out: Anti-proliferative activity (IC50 ± standard deviation) A549. As for the experimental part: as §3
as §2, with “The reaction was terminated, and OD (optical density) values at 450 nm were measured using a microplate reader.” left out

The test system of experiment [5] is Hep G2 cells. Nature of the experiment: CCK-8 anti-proliferative assay, Hep G2.
Description: as §1, §2

For experiment [6], the system named is BxPC-3 cells. Nature of the experiment: CCK-8 anti-proliferative assay, BxPC-3. The settings on record: Homo sapiens, BXPC-3; Table 7; co-incubated 48 h; read-out: Anti-proliferative activity (IC50 ± standard deviation) BxPC-3.
Description: as §1, §2

The subject of experiment [7] is PANC-1 cells. In words: CCK-8 anti-proliferative assay, PANC-1. The settings on record: Homo sapiens, PANC-1; Table 7; co-incubated 48 h; read-out: Anti-proliferative activity (IC50 ± standard deviation) PANC-1.
Description: as §1, §2

The mark [8] stands for this setting: Homo sapiens, HepG2, Table 16, comparative compounds 8-1 to 8-23, co-incubated 48 h, read-out: Anti-proliferative activity (IC50 ± standard deviation) Hep G2.
Where [9] appears, read: Table 16, comparative compounds 8-1 to 8-23, co-incubated 48 h, read-out: Anti-proliferative activity (IC50 ± standard deviation) Hep G2.

As usually defined, the IC50 is the concentration that gives 50% inhibition.

Where a name gives a salt, the structure may show the parent alone. Read-outs that look alike come from different tables or passages of the source.

Turning to `COc1cc2ncnc(NCc3cccc(NC(=O)Nc4cc(C)cc(C)c4)c3)c2cc1OCCCC(=O)N1CCC(N2CCOCC2)CC1` [Compound 8-5, reference compound], the IC50 in experiment [1] (Homo sapiens, T-24) is 23.2 ± 0.54 µM; in experiment [2] (Homo sapiens), 21.7 ± 0.51 µM; in experiment [3] (Homo sapiens, MCF7), 21.3 ± 0.42 µM; in experiment [4] (Homo sapiens, A549), 21 ± 0.87 µM; in experiment [5] (setting [8]), more than 30 µM.

In the case of `COc1cc2ncnc(NCc3cccc(NC(=O)Nc4ccc(C)cc4)c3)c2cc1OCCCC(=O)N1CCC(N2CCOCC2)CC1` [Compound 8-3, reference compound], the IC50 is 20.6 ± 0.68 µM in experiment [1] (Homo sapiens, T-24); more than 30 µM in experiment [2] (Homo sapiens); 23.2 ± 0.35 µM in experiment [3] (Homo sapiens, MCF7); 24.1 ± 0.95 µM in experiment [4] (Homo sapiens, A549); more than 30 µM in experiment [5] (setting [8]).

With `COc1cc2ncnc(NCc3cccc(NC(=O)Nc4ccccc4)c3)c2cc1OCCCC(=O)N1CCC(N2CCOCC2)CC1` [Compound 8-1, reference compound], the half-inhibitory concentration (IC50) in experiment [1] (Homo sapiens, T-24) was 18.8 ± 0.49 µM; in experiment [2] (Homo sapiens) it was 26.2 ± 0.98 µM; in experiment [3] (Homo sapiens, MCF7), 18.3 ± 0.53 µM; in experiment [4] (Homo sapiens, A549), more than 30 µM; in experiment [5] (setting [8]), 28.2 ± 0.49 µM.

In the case of `COc1cc2ncnc(NCc3cccc(NC(=O)Nc4ccc(C(C)C)cc4)c3)c2cc1OCCCC(=O)N1CCC(N2CCOCC2)CC1` [Compound 8-8, reference compound], the IC50 in experiment [1] (Homo sapiens, T-24) is 7.73 ± 0.23 µM; in experiment [2] (Homo sapiens), 7.6 ± 0.18 µM; in experiment [3] (Homo sapiens, MCF7), 10 ± 0.19 µM; in experiment [4] (Homo sapiens, A549), 18.3 ± 0.29 µM; in experiment [5] (setting [8]), 17.7 ± 0.46 µM.

In the case of `COc1cc2ncnc(NCc3cccc(NC(=O)Nc4ccc(C(F)(F)F)cc4)c3)c2cc1OCCCC(=O)N1CCC(N2CCOCC2)CC1` [Compound 8-18, reference compound], the IC50 in experiment [1] (Homo sapiens, T-24) was 19.6 ± 0.45 µM; in experiment [2] (Homo sapiens) it was 13.1 ± 0.24 µM; in experiment [3] (Homo sapiens, MCF7) it was 13.2 ± 0.39 µM; in experiment [4] (Homo sapiens, A549) it was 18.8 ± 0.59 µM; in experiment [5] (setting [8]), more than 30 µM.

As to `COc1cc2ncnc(NCc3cccc(NC(=O)Nc4ccc(C(C)(C)C)cc4)c3)c2cc1OCCCC(=O)N1CCC(N2CCOCC2)CC1` [Compound 8-9, reference compound], the IC50 in experiment [1] (Homo sapiens, T-24) stood at 4.54 ± 0.04 µM; in experiment [2] (Homo sapiens), 6.25 ± 0.06 µM; in experiment [3] (Homo sapiens, MCF7) it was 6.55 ± 0.13 µM; in experiment [4] (Homo sapiens, A549), 12.5 ± 0.37 µM; in experiment [5] (setting [8]) it was 12.2 ± 0.17 µM; in experiment [5] (Homo sapiens, HepG2, read-out: IC50 on Hep G2) it was 12.2 ± 0.17 µM.

On to `COc1ccc(NC(=O)Nc2cccc(CNc3ncnc4cc(OC)c(OCCCCCCN5CCC(CN6CCN(c7ccccn7)CC6)CC5)cc34)c2)cc1` [Compound 8-21, reference compound], for which the IC50 in experiment [1] was found to be 5.42 ± 0.05 µM; in experiment [2], 6.61 ± 0.07 µM; in experiment [3], 12.2 ± 0.32 µM; in experiment [4], 11.9 ± 0.23 µM; in experiment [5] (setting [9]), 14.1 ± 0.2 µM.

Consider `COc1ccccc1NC(=O)Nc1cccc(CNc2ncnc3cc(OC)c(OCCCC(=O)N4CCC(N5CCOCC5)CC4)cc23)c1` [Compound 8-10, reference compound], for which the 50% inhibitory concentration (IC50) was 18.7 ± 0.38 µM in experiment [1] (Homo sapiens, T-24); 16.9 ± 0.64 µM in experiment [2] (Homo sapiens); 19.3 ± 0.56 µM in experiment [3] (Homo sapiens, MCF7); more than 30 µM in experiment [4] (Homo sapiens, A549); 28.8 ± 0.58 µM in experiment [5] (setting [8]).

In the case of `COc1cc2ncnc(NCc3cccc(NC(=O)Nc4ccc(F)c(C(F)(F)F)c4)c3)c2cc1OCCCC(=O)N1CCC(N2CCOCC2)CC1` [Compound 8-19, reference compound], the IC50 in experiment [1] (Homo sapiens, T-24) was 26.2 ± 0.94 µM; in experiment [2] (Homo sapiens), 17.9 ± 0.45 µM; in experiment [3] (Homo sapiens, MCF7), 22.4 ± 0.82 µM; in experiment [4] (Homo sapiens, A549), 16.1 ± 0.71 µM; in experiment [5] (setting [8]), more than 30 µM.

As for `C#Cc1cccc(Nc2ncnc3cc(OCCOC)c(OCCOC)cc23)c1` [Erlo, erlotinib hydrochloride, reference compound], the results for the IC50 in experiment [6] and in experiment [7] were 18.3 ± 1.46 µM and 27.4 ± 1.77 µM, respectively.

For `COc1cc2ncnc(NCc3cccc(NC(=O)Nc4ccccc4Cl)c3)c2cc1OCCCC(=O)N1CCC(N2CCOCC2)CC1` [Compound 8-14, reference compound], the IC50 in experiment [1] (Homo sapiens, T-24) was 23.1 ± 0.73 µM; in experiment [2] (Homo sapiens), 28.9 ± 0.53 µM; in experiment [3] (Homo sapiens, MCF7), 18.6 ± 0.35 µM; in experiment [4] (Homo sapiens, A549), 20.2 ± 0.92 µM; in experiment [5] (setting [8]) it was more than 30 µM.

For the compound `COc1cc2ncnc(NCc3cccc(NC(=O)Nc4ccc(C)cc4C)c3)c2cc1OCCCC(=O)N1CCC(N2CCOCC2)CC1` [Compound 8-4, reference compound], the half-maximal inhibitory concentration (IC50) is 27.1 ± 0.33 µM in experiment [1] (Homo sapiens, T-24); 14 ± 0.66 µM in experiment [2] (Homo sapiens); 18.5 ± 0.63 µM in experiment [3] (Homo sapiens, MCF7); 22.2 ± 1.15 µM in experiment [4] (Homo sapiens, A549); more than 30 µM in experiment [5] (setting [8]).

As for `CCc1ccccc1NC(=O)Nc1cccc(CNc2ncnc3cc(OC)c(OCCCC(=O)N4CCC(N5CCOCC5)CC4)cc23)c1` [Compound 8-6, reference compound], the IC50 was 19.4 ± 0.44 µM in experiment [1] (Homo sapiens, T-24); 27.5 ± 0.94 µM in experiment [2] (Homo sapiens); more than 30 µM in experiment [3] (Homo sapiens, MCF7); more than 30 µM in experiment [4] (Homo sapiens, A549); more than 30 µM in experiment [5] (setting [8]).

As for `CCc1cccc(CC)c1NC(=O)Nc1cccc(CNc2ncnc3cc(OC)c(OCCCC(=O)N4CCC(N5CCOCC5)CC4)cc23)c1` [Compound 8-7, reference compound], the concentration for half-maximal inhibition (IC50) is 18.6 ± 0.53 µM in experiment [1] (Homo sapiens, T-24); 13.9 ± 0.68 µM in experiment [2] (Homo sapiens); more than 30 µM in experiment [3] (Homo sapiens, MCF7); more than 30 µM in experiment [4] (Homo sapiens, A549); 24.2 ± 0.53 µM in experiment [5] (setting [8]).

`COc1cc2ncnc(NCc3cccc(NC(=O)Nc4ccccc4C)c3)c2cc1OCCCC(=O)N1CCC(N2CCOCC2)CC1` [Compound 8-2, reference compound]: the IC50 in experiment [1] (Homo sapiens, T-24) was more than 30 µM; in experiment [2] (Homo sapiens) it was 25.9 ± 1.32 µM; in experiment [3] (Homo sapiens, MCF7) it was 16.5 ± 0.64 µM; in experiment [4] (Homo sapiens, A549), more than 30 µM; in experiment [5] (setting [8]), more than 30 µM.

Regarding `COc1cc2ncnc(NCc3cccc(NC(=O)Nc4ccc(F)cc4)c3)c2cc1OCCCCCCN1CCN(CCN2CCOCC2)CC1` [Compound 8-11, reference compound], the IC50 in experiment [1] was 23.3 ± 1.82 µM; in experiment [2], 17.9 ± 0.33 µM; in experiment [3], 18.3 ± 0.43 µM; in experiment [4], more than 30 µM; in experiment [5] (setting [9]), more than 30 µM.

In the case of `COc1cc2ncnc(NCc3cccc(NC(=O)Nc4c(Cl)cc(Cl)cc4Cl)c3)c2cc1OCCCC(=O)N1CCC(N2CCOCC2)CC1` [Compound 8-16, reference compound], the IC50 was more than 30 µM in experiment [1] (Homo sapiens, T-24); more than 30 µM in experiment [2] (Homo sapiens); 15.9 ± 0.62 µM in experiment [3] (Homo sapiens, MCF7); more than 50 µM in experiment [4] (Homo sapiens, A549); more than 30 µM in experiment [5] (setting [8]).

Turning to `COc1cc2ncnc(NCc3cccc(NC(=O)Nc4ccccc4Cl)c3)c2cc1OCCCCCCN1CCC(CN2CCN(c3ccccn3)CC2)CC1` [Compound 8-20, reference compound], the IC50 in experiment [1] was 18.4 ± 0.81 µM; in experiment [2], 14.1 ± 0.29 µM; in experiment [3], 20.5 ± 0.38 µM; in experiment [4], 22.4 ± 1.01 µM; in experiment [5] (setting [9]), more than 30 µM.
